From US8227508B2, “Dietary and pharmaceutical compositions containing carnosol and/or rosmanol and their uses” (DSM IP Assets B.V., priority 2006, dated 2012)

How the values were obtained:
[1] = target: T1, human serotonin re-uptake transporter (hSERT) (Homo sapiens, UniProt P31645); experiment: Serotonin uptake inhibition in HEK-293 cells expressing hSERT; format: cell-based; settings: transfected HEK-293 cells, [3H]-serotonin 20 nM, mean ± s.e.m. (n = 2)
T1 construct: host or cells: HEK-293
Procedure: The cells were routinely grown in Dulbecco's Modified Eagle's Medium (Bioconcept) containing 10% dialysed foetal calf serum (Invitrogen), penicillin, streptomycin, L-glutamine and the antibiotic G418 and passaged by-trypsinisation. On the day of assay, cells from 80% confluent flasks were harvested by gentle washing with warm phosphate buffered saline (PBS). […] Serotonin uptake into the cells was determined by addition of radio-labelled [^3H]-serotonin (GE Healthcare) at a concentration of 20 nM, and incubation for 40 minutes at 37° C. with gentle shaking. At the end of this time unincorporated label was removed by filtration though Unifilter 96 GF/B plates (Perkin Elmer) using a Tomtec Mach III M cell harvester. The incorporated serotonin retained on the plates was quantified by liquid scintillation counting using Microscint-40/Topcount (Perkin Elmer).

mouse = experiment: Marble burying test; format: in vivo; settings: −30 min
Procedure: The method applied here follows that described by Broekkamp et al. (1986). Mice (n=15 per treatment group) were individually placed in transparent plastic cages (33×21×18 cm) with 5 cm of sawdust on the floor and 25 marbles (diameter 1 cm) grouped in the centre of the cage. A second, up-turned, cage served as a lid. The number of marbles covered by sawdust (by at least two-thirds) was counted at the end of the 30-min test period. Tests were performed by investigators blind to the drug treatment protocol.
Prior to testing, all test cages and marbles were “impregnated” by leaving 10 naive mice in each cage for 15 minutes.
Carnosol (3, 10 and 30 mg/kg) and rosmanol (10, 30 and 100 mg/kg) were administered i.p. 30 min before the test, and compared with a vehicle control group. Fluoxetine (32 mg/kg), administered under the same experimental conditions, was used as a reference substance.

[2] = target: T2, monoamine oxidase A (MAO-A) (Homo sapiens, UniProt P21397); experiment: Monoamine oxidase A inhibition (p-tyramine substrate, HRP/vanillic acid readout); format: biochemical; settings: mean ± s.e.m., n = 3
T2 sequence (P21397 1-527): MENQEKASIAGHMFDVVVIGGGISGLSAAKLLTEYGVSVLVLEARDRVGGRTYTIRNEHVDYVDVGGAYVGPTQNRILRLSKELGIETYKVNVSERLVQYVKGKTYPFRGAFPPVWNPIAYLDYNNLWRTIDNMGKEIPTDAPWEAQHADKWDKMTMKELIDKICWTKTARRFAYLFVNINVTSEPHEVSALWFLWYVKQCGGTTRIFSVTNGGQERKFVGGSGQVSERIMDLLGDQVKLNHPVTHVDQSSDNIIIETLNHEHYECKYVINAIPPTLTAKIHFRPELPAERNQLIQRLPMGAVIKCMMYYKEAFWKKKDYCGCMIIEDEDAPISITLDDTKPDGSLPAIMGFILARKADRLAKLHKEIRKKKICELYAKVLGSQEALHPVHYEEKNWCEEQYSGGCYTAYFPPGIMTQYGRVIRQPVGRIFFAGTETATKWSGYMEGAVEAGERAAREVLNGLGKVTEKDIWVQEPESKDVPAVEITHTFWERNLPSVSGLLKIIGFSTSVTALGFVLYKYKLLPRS
Procedure: (§1) The organic amines p-tyramine or benzylamine were used as substrates for the monoamine oxidase A (MAO-A) and B (MAO-B) enzymes respectively. The H2O2 produced by this reaction was quantified by reaction with vanillic acid, catalysed by horse radish peroxidase (HRP).
(§2) The reactions were carried out at 37° C. in polystyrene microtitre plates. The MAO enzymes (final concentration 2 U/ml) were mixed with either p-tyramine (Sigma, final concentration 0.5 mM) or benzylamine (Sigma, final concentration 0.5 mM) as appropriate and the chromogenic solution (containing vanillic acid (Fluka), 4-aminoantipyrine (Fluka) and horse radish peroxidase (Sigma), final concentrations 0.25 mM, 0.125 mM and 1 U/ml, respectively) in 0.2 M potassium phosphate buffer, pH 7.6. After 40 min incubation, plates were analysed in a microtitre plate absorbance reader, e.g. Spectramax M5 (Molecular Devices Corporation), at 495 nm.
(§3) The effects of carnosol and rosmanol on the monoamine oxidase enzymes were determined by their inclusion in the assay at a range of concentrations between 0.03 and 100 μM for 10 minutes prior to and during the incubation with substrate. To determine the effect of the compounds on the HRP-catalysed portion of the reaction, the MAO enzyme was replaced by H2O2 (Molecular Probes, final concentration 50 μM). […]

[3] = target: T3, monoamine oxidase B (MAO-B) (Homo sapiens, UniProt P27338); experiment: Monoamine oxidase B inhibition (benzylamine substrate, HRP/vanillic acid readout); format: biochemical; settings: mean ± s.e.m., n = 2
T3 sequence (P27338 1-520): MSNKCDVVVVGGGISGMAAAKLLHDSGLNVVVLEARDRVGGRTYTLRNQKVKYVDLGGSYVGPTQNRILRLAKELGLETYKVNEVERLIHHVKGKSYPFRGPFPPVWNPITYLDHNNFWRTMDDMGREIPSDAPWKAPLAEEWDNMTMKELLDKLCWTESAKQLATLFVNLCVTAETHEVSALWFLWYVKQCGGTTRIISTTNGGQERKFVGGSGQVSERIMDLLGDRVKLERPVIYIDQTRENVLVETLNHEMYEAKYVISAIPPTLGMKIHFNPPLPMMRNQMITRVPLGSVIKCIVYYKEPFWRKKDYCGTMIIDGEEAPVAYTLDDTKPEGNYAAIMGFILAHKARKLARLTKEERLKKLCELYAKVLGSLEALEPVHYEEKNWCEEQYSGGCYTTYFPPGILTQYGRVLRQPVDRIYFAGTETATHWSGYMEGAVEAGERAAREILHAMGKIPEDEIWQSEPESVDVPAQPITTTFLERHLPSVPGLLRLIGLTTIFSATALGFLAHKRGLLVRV
Procedure: as §1, §2, §3

T1 sequence (P31645 whole entry): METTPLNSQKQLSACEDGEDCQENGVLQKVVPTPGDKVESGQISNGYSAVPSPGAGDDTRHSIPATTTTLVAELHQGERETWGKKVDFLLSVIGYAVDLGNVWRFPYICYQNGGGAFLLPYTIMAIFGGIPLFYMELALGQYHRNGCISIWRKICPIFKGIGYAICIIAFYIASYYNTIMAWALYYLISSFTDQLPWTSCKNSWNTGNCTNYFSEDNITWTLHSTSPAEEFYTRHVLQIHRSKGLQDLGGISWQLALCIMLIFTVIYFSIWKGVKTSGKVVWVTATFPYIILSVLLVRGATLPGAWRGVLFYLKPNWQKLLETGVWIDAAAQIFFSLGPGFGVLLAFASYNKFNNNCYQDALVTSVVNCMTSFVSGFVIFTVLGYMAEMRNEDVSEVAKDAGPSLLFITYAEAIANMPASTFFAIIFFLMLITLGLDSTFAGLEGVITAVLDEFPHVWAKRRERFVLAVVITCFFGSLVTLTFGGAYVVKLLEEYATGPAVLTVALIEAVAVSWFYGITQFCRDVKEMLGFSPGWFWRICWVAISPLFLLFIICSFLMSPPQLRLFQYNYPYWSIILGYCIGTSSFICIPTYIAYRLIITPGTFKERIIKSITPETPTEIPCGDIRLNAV

`CC(C)c1cc2c(c(O)c1O)[C@@]13CCCC(C)(C)[C@@H]1C[C@@H]2OC3=O` [Carnosol, carnosol] was tested, and the IC50 [1] was 26.6 ± 6.9 µM, the “Number of marbles buried (% change from control)” value (“Number … (% change from control)” for short) (mouse; 3 mg/kg i.p.) was −12% and the “Number … (% change from control)” value (mouse; 10 mg/kg i.p.) was −10%. The “Number … (% change from control)” value (mouse; 30 mg/kg i.p.) was −41%, the IC50 [2] was 4 ± 0.1 µM and the IC50 [3] was 107 ± 19.9 µM.

`CC(C)c1cc2c(c(O)c1O)[C@@]13CCCC(C)(C)[C@@H]1[C@H](OC3=O)[C@H]2O` [Rosmanol, rosmanol] was tested, and the IC50 [1] was 23.2 ± 9.7 µM, the “Number … (% change from control)” value (mouse; 10 mg/kg i.p.) was −21% and the “Number … (% change from control)” value (mouse; 30 mg/kg i.p.) was −12%. For the same molecule, the “Number … (% change from control)” value (mouse; 100 mg/kg i.p.) was −55%, the IC50 [2] was 3.02 ± 0.48 µM and the IC50 [3] was 73.3 ± 11.3 µM.
